Values of other authors as cited in patent EP3964225A1 (priority 2020, dated 2022).

Tested on: B cell growth
Details: eight p17 peptides tested

Question: For “GARASVLSGGELDRWEKIRL [peptide F1, p17-derived peptide, aminoacids 2 to 21 of p17]”, which “cell growth promoting activity” value is on record?
Answer: The value was “the only one endowed with cell growth promoting activity”.
